Results: ChEMBL document CHEMBL2380201, “Synthesis, biological activity and resistance to proteolytic digestion of new cyclic dermorphin/deltorphin analogues” (Eur J Med Chem, 2013)
Calls of active or inactive are those of the source. The calls are words filed in the database; no cut-off is given here. Numbered stars: 1 amine (or outer) side, 2 acyl side, 3 side chain; on linkers, the order of the positions; unused ones are H or OH. Bridge positions count the residues as written; N and C are the ends. Square brackets hold non-standard residues; d marks the D form. Peptide text beside a SMILES is read from it. ξ: configuration not given here. Orn = NCCC[C@H](N)C(=O)O; Dap = NC[C@H](N)C(=O)O; ξOrn = NCCCC(N)C(=O)O; CO = O=C([*:1])[*:2]; ξDap = NCC(N)C(=O)O

How the values were obtained:
[1] = Proteolytic stability of the compound in ammonium bicarbonate buffer assessed as intact cyclic fragment at pH 8 at 10^-4 M after 2.5 hrs by ESI-MS spectrophotometry in presence […]; format: ADME; conditions: isolated protein, pH 8, 2.5 h, 100 µM
Mus musculus [2] = assay: Antinociceptive activity in BALB/c mouse assessed as increase in paw withdrawal latency at 1 mg/kg, ip measured 30 mins post dose by hot plate test; format: functional, organism-based; design: dose 1 mg/kg
Mus musculus [3] = assay: Antinociceptive activity in BALB/c mouse assessed as increase in paw withdrawal latency at 1 mg/kg, iv measured 30 mins post dose by hot plate test; format: functional, organism-based; design: dose 1 mg/kg
Mus musculus [4] = assay: Antinociceptive activity in BALB/c mouse assessed as increase in paw withdrawal latency at 0.1 mg/kg, sc measured 30 mins post dose by hot plate test; format: functional, organism-based; design: dose 0.1 mg/kg
chymotrypsin = assay: Proteolytic stability of the compound in ammonium bicarbonate buffer assessed as hydrolysis at pH 8 at 10^-4 M after 1.5 hrs by ESI-MS spectrophotometry in presence of chymotrypsin; format: ADME; conditions: read-out: Drug degradation
[5] = Proteolytic stability of the compound in ammonium bicarbonate buffer assessed as hydrolysis at pH 8 at 10^-4 M after 12 hrs by ESI-MS spectrophotometry in presence […]; format: ADME; conditions: isolated protein, pH 8, 12 h, 100 µM
[6] = Proteolytic stability of the compound in ammonium bicarbonate buffer assessed as hydrolysis at pH 8 at 10^-4 M after 12 hrs by ESI-MS spectrophotometry in presence of chymotrypsin; format: ADME; conditions: isolated protein, pH 8, 12 h, 100 µM
[7] = Proteolytic stability of the compound in ammonium bicarbonate buffer assessed as hydrolysis at pH 8 at 10^-4 M after 2.5 hrs by ESI-MS spectrophotometry in presence […]; format: ADME; conditions: isolated protein, pH 8, 2.5 h, 100 µM
Mus musculus [8] = assay: Antinociceptive activity in BALB/c mouse at 2 mg/kg, iv measured 30 mins post dose by tail flick test relative to vehicle-treated control; format: functional
Mus musculus [9] = assay: Antinociceptive activity in BALB/c mouse at 4 mg/kg, iv up to 120 mins by tail flick test; format: functional, organism-based; design: dose 4 mg/kg
Mus musculus [10] = assay: Antinociceptive activity in BALB/c mouse at 1 mg/kg, iv measured 30 to 90 mins post dose by tail flick test relative to vehicle-treated control; format: functional
Mus musculus [11] = assay: Antinociceptive activity in BALB/c mouse at 0.5 mg/kg, iv measured 30 to 90 mins post dose by tail flick test relative to vehicle-treated control; format: functional
Mus musculus [12] = assay: Antinociceptive activity in BALB/c mouse at 2 mg/kg, iv measured 15 to 180 mins post dose by tail flick test; format: functional, organism-based; design: dose 2 mg/kg
Mus musculus [13] = assay: Antinociceptive activity in iv dosed BALB/c mouse measured 15 to 180 mins post dose by tail flick test; format: functional, organism-based
[14] = Proteolytic stability of the compound in ammonium bicarbonate buffer assessed as hydrolysis at pH 8 at 10^-4 M after 20 mins to 12 hrs by ESI-MS spectrophotometry in presence of chymotrypsin; format: ADME; conditions: isolated protein, pH 8, 100 µM
[15] = Proteolytic stability of the compound in ammonium bicarbonate buffer assessed as hydrolysis at pH 8 at 10^-4 M after 20 mins to 12 hrs by ESI-MS spectrophotometry in presence […]; format: ADME; conditions: isolated protein, pH 8, 100 µM

Row | Structure (SMILES) | Activity (Mus musculus [2]) | Activity (Mus musculus [3]) | Activity (Mus musculus [4]) | metabolised at 1.5 h, 100 µM (chymotrypsin) [%] | Stability [5] | Stability [6] | also measured
1 | NC(=O)[C@@H]1CCCCNC(=O)NC[C@H](NC(=O)[C@@H](N)Cc2ccc(O)cc2)C(=O)N[C@@H](Cc2ccccc2)C(=O)N1 (H-Y[Dap]FK-NH2; linker 2-4 via CO) |  |  |  |  |  |  | Stability [1]: 98%
2 | NC(=O)NCCNC(=O)[C@@H]1CCNC(=O)NCCC[C@@H](NC(=O)[C@@H](N)Cc2ccc(O)cc2)C(=O)N[C@@H](Cc2ccccc2)C(=O)N1 | inactive | inactive | inactive | < 1 | Stable | Stable | 
3 | NC(=O)NCCNC(=O)[C@@H]1CNC(=O)NCCC[C@@H](NC(=O)[C@@H](N)Cc2ccc(O)cc2)C(=O)N[C@@H](Cc2ccccc2)C(=O)N1 | inactive | inactive | inactive | < 1 | Stable | Stable | 
4 | NC(=O)NCCNC(=O)[C@@H]1CNC(=O)NCCCC[C@@H](NC(=O)[C@@H](N)Cc2ccc(O)cc2)C(=O)N[C@@H](Cc2ccccc2)C(=O)N1 | inactive | inactive | inactive | < 1 | Stable | Stable | 
5 | NC(=O)NCCNC(=O)[C@@H]1CCCCNC(=O)NCCCC[C@@H](NC(=O)[C@@H](N)Cc2ccc(O)cc2)C(=O)N[C@@H](Cc2ccccc2)C(=O)N1 | inactive | inactive | inactive | < 1 | Stable | Stable | 
6 | NC(=O)[C@@H]1CCCCNC(=O)NCCC[C@H](NC(=O)[C@@H](N)Cc2ccc(O)cc2)C(=O)N[C@@H](Cc2ccccc2)C(=O)N1 (H-Y[Orn]FK-NH2; linker 2-4 via CO) |  |  |  |  |  |  | Stability [7]: Unstable
7 | NCCNC(=O)[C@@H]1CNC(=O)NCCCC[C@@H](NC(=O)[C@@H](N)Cc2ccc(O)cc2)C(=O)N[C@@H](Cc2ccccc2)C(=O)N1 | inactive | inactive | inactive | < 1 | Stable | Stable | 
8 | NC(=O)NCCNC(=O)[C@@H]1CCCNC(=O)NCCC[C@@H](NC(=O)[C@@H](N)Cc2ccc(O)cc2)C(=O)N[C@@H](Cc2ccccc2)C(=O)N1 | inactive | inactive | inactive | < 1 | Stable | Stable | 
9 | CN1CC[C@]23c4c5ccc(O)c4O[C@H]2[C@@H](O)C=C[C@H]3[C@H]1C5 [MORPHINE] |  | inactive |  |  |  |  | MPE (Mus musculus [8]): 63.1%; Activity (Mus musculus [9]): Active; Activity (Mus musculus [10]): inactive; Activity (Mus musculus [11]): inactive
10 | NC(=O)C1CNC(=O)NCCCC(NC(=O)[C@@H](N)Cc2ccc(O)cc2)C(=O)N[C@@H](Cc2ccccc2)C(=O)N1 (some centres undefined) (H-Y[ξOrn]F[ξDap]-NH2; linker 2-4 via CO) |  |  |  |  |  |  | Stability [7]: Unstable
11 | NC(=O)[C@@H]1CNC(=O)NCCCC[C@H](NC(=O)[C@@H](N)Cc2ccc(O)cc2)C(=O)N[C@@H](Cc2ccccc2)C(=O)N1 (H-YKF[Dap]-NH2; linker 2-4 via CO) |  |  |  |  |  |  | Stability [1]: 98%
12 | NC(=O)NCCNC(=O)[C@@H]1CCCCNC(=O)NCCC[C@@H](NC(=O)[C@@H](N)Cc2ccc(O)cc2)C(=O)N[C@@H](Cc2ccccc2)C(=O)N1 | inactive | inactive | inactive | < 1 | Stable | Stable | 
13 | CCNC(=O)[C@@H]1CCCNC(=O)NCCCC[C@@H](NC(=O)[C@@H](N)Cc2ccc(O)cc2)C(=O)N[C@@H](Cc2ccccc2)C(=O)N1 | inactive | inactive | inactive | < 1 | Stable | Stable | 
14 | NC(=O)NCCNC(=O)[C@@H]1CCCNC(=O)NCCCC[C@@H](NC(=O)[C@@H](N)Cc2ccc(O)cc2)C(=O)N[C@@H](Cc2ccccc2)C(=O)N1 | inactive | inactive | inactive | < 1 | Stable | Stable | 
15 | NC(=O)NCCNC(=O)[C@@H]1CCNC(=O)NCCCC[C@@H](NC(=O)[C@@H](N)Cc2ccc(O)cc2)C(=O)N[C@@H](Cc2ccccc2)C(=O)N1 | inactive | Active | inactive | < 1 |  |  | Activity (Mus musculus [12]): Active; Activity (Mus musculus [9]): Active; MPE (Mus musculus [10]): 54.7%; Activity (Mus musculus [13]): Dose-dependent effect; MPE (Mus musculus [11]): 41.8%; Stability [14]: Stable; Stability [15]: Stable
